Measurements reported in PMC9661480, “Discovery and Optimization of Indoline-Based Compounds as Dual 5-LOX/sEH Inhibitors: In Vitro and In Vivo Anti-Inflammatory Characterization” (Journal of Medicinal Chemistry, 2022).

Tests used:
human recombinant sEH = target: T1, human recombinant sEH (Homo sapiens, UniProt P34913); test: sEH activity assay (PHOME substrate); type: biochemical; settings: Table 2; human isolated sEH; mean ± SEM
T1 construct: made in house; host or cells: Sf9 insect cells (recombinant baculovirus)
T1 sequence (P34913 1-555): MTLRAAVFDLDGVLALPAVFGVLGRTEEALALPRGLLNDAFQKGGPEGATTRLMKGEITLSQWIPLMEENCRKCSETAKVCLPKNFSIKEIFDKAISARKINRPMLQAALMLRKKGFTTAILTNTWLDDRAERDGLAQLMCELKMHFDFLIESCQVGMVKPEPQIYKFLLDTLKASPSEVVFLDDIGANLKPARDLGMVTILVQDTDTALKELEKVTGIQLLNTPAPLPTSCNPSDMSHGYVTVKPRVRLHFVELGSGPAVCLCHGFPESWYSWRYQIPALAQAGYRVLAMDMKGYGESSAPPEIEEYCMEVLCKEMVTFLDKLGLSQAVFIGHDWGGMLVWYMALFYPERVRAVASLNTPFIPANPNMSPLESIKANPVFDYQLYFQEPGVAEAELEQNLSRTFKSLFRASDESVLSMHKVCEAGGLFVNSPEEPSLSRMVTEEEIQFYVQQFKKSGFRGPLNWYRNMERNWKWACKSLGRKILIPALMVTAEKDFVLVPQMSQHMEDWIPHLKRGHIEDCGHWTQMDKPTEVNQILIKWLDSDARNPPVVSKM

5-LOX = target: T2, 5-LOX (Homo sapiens, UniProt P09917); test: Cell-free 5-LOX activity assay; type: biochemical; design: made in house; host or cells: Escherichia coli Bl21 (DE3); settings: Table 2; human isolated 5-LOX; mean ± SEM
T2 sequence (P09917 1-674): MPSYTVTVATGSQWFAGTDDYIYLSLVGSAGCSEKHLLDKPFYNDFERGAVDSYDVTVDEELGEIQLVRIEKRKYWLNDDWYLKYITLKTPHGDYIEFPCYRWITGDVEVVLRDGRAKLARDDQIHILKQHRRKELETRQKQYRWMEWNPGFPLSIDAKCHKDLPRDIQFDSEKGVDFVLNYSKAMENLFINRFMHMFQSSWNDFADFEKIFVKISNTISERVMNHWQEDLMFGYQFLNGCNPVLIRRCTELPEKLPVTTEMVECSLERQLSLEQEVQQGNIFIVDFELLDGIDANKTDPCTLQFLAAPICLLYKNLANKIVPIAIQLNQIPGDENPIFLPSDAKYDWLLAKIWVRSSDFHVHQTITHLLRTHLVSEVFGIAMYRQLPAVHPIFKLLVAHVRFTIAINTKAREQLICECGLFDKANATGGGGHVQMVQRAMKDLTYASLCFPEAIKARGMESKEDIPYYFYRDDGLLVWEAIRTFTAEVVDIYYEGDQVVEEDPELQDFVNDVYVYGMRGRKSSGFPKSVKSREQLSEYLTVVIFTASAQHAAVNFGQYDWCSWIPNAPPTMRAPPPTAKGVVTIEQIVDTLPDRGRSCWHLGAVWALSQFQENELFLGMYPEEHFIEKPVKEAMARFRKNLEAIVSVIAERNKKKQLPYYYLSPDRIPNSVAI

[1] = In vivo plasma levels of 73; settings: mouse, ip, mean ±SD

IC50 (5-LOX) | concentration at 0.5 h ([1]; 0.5 h after 10 mg Kg-1 intraperitoneal) | concentration at 1 h ([1]; 1 h after 10 mg Kg-1 intraperitoneal) | concentration at 2 h ([1]; 2 h after 10 mg Kg-1 intraperitoneal) | concentration at 4 h ([1]; 4 h after 10 mg Kg-1 intraperitoneal) | Compound | IC50 (human recombinant sEH)
> 10 µM |  |  |  |  | 1-(1-(4-Aminobutyl)indolin-5-yl)-3-neopentylthiourea [compound 51] | > 10 µM
 |  |  |  |  | 4-(3-(1-(4-Fluorobenzyl)indolin-5-yl)thioureido)benzoic Acid [compound 58] | > 10 µM
 | 15.4 ± 2.5 ng/mL | 12.3 ± 0.9 ng/mL | 10.6 ± 0.6 ng/mL | 1.1 ± 0.1 ng/mL | CC(C)(C)CNC(=S)Nc1ccc2c(c1)CCN2Cc1ccc(N=O)cc1 [compound 73, 1-Neopentyl-3-(1-(4-nitrosobenzyl)indolin-5-yl)thiourea] | 
